# Assay results reported in ChEMBL document CHEMBL1201862, “PubChem BioAssay data set” (2004).
#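 Cultured in 96-well plates, cells were exposed to test compound for 48 hours across five concentrations. GI50: concentration for 50% inhibition of growth.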 Calls of active or inactive are those of the source. No stated cut-off is given here; in the data, active = GI50 up to about 1.1 µM and inactive = higher.
# Tests used:
# Test in all cases: growth of human tumour cells (NCI), 48 h
# NCI-H522 = tested on: NCI-H522
# NCI/ADR-RES = tested on: NCI/ADR-RES
# SN12C = tested on: SN12C
# SNB-19 = tested on: SNB-19
# DU-145 = tested on: DU-145
# SNB-75 = tested on: SNB-75
# SK-MEL-28 = tested on: SK-MEL-28
# Hs-578T = tested on: Hs-578T
# CCRF-CEM = tested on: CCRF-CEM
# HOP-62 = tested on: HOP-62
# SK-MEL-5 = tested on: SK-MEL-5
# CAKI-1 = tested on: CAKI-1
# KM12 = tested on: KM12
# OVCAR-5 = tested on: OVCAR-5
# OVCAR-4 = tested on: OVCAR-4
# A498 = tested on: A498
# NCI-H460 = tested on: NCI-H460
# NCI-H23 = tested on: NCI-H23
# M14 = tested on: M14
# OVCAR-8 = tested on: OVCAR-8
# A549 = tested on: A549
# HOP-92 = tested on: HOP-92
# SW-620 = tested on: SW-620
# UO-31 = tested on: UO-31
# TK-10 = tested on: TK-10
# COLO 205 = tested on: COLO 205
# SK-MEL-2 = tested on: SK-MEL-2
# UACC-257 = tested on: UACC-257
# PC-3 = tested on: PC-3
# MCF7 = tested on: MCF7
# IGROV-1 = tested on: IGROV-1
# EKVX = tested on: EKVX
# BT-549 = tested on: BT-549
# Malme-3M = tested on: Malme-3M
# HCC 2998 = tested on: HCC 2998
# U-251 = tested on: U-251
# RPMI-8226 = tested on: RPMI-8226
# OVCAR-3 = tested on: OVCAR-3
# SF-539 = tested on: SF-539
# LOX IMVI = tested on: LOX IMVI
# MOLT-4 = tested on: MOLT-4
# SR = tested on: SR
# HL-60 = tested on: HL-60
# SF-295 = tested on: SF-295
# SF-268 = tested on: SF-268
# HCT-116 = tested on: HCT-116
# MDA-MB-435 = tested on: MDA-MB-435
# MDA-MB-231 = tested on: MDA-MB-231
# HCT-15 = tested on: HCT-15
# UACC-62 = tested on: UACC-62
# RXF 393 = tested on: RXF 393
# K562 = tested on: K562
# T47D = tested on: T47D
# ACHN = tested on: ACHN
# 786-0 = tested on: 786-0
# HT-29 = tested on: HT-29
# MDA-N = tested on: MDA-N
# NCI-H226 = tested on: NCI-H226
# SK-OV-3 = tested on: SK-OV-3
structure (smiles),measurement,setting,value
Cc1ccc(-c2n[nH]c(=O)[nH]2)cc1,GI50,NCI-H522,> 100 µM (inactive)
same,GI50,NCI/ADR-RES,> 100 µM (inactive)
same,GI50,SN12C,> 100 µM (inactive)
same,GI50,SNB-19,> 100 µM (inactive)
same,GI50,DU-145,> 100 µM (inactive)
same,GI50,SNB-75,> 100 µM (inactive)
same,GI50,SK-MEL-28,> 100 µM (inactive)
same,GI50,Hs-578T,> 100 µM (inactive)
same,GI50,CCRF-CEM,> 100 µM (inactive)
same,GI50,HOP-62,> 100 µM (inactive)
same,GI50,SK-MEL-5,> 100 µM (inactive)
same,GI50,CAKI-1,> 100 µM (inactive)
same,GI50,KM12,> 100 µM (inactive)
same,GI50,OVCAR-5,> 100 µM (inactive)
same,GI50,OVCAR-4,> 100 µM (inactive)
same,GI50,A498,> 100 µM (inactive)
same,GI50,NCI-H460,> 100 µM (inactive)
same,GI50,NCI-H23,> 100 µM (inactive)
same,GI50,M14,> 100 µM (inactive)
same,GI50,OVCAR-8,> 100 µM (inactive)
same,GI50,A549,> 100 µM (inactive)
same,GI50,HOP-92,44.9 µM (inactive)
same,GI50,SW-620,> 100 µM (inactive)
same,GI50,UO-31,> 100 µM (inactive)
same,GI50,TK-10,> 100 µM (inactive)
same,GI50,COLO 205,> 100 µM (inactive)
same,GI50,SK-MEL-2,> 100 µM (inactive)
same,GI50,UACC-257,> 66.1 µM (inactive)
same,GI50,PC-3,> 100 µM (inactive)
same,GI50,MCF7,> 100 µM (inactive)
same,GI50,IGROV-1,> 100 µM (inactive)
same,GI50,EKVX,45.8 µM (inactive)
same,GI50,BT-549,> 100 µM (inactive)
same,GI50,Malme-3M,> 100 µM (inactive)
same,GI50,HCC 2998,> 100 µM (inactive)
same,GI50,U-251,> 100 µM (inactive)
same,GI50,RPMI-8226,> 100 µM (inactive)
same,GI50,OVCAR-3,> 100 µM (inactive)
same,GI50,SF-539,> 100 µM (inactive)
same,GI50,LOX IMVI,> 100 µM (inactive)
same,GI50,MOLT-4,> 100 µM (inactive)
same,GI50,SR,> 100 µM (inactive)
same,GI50,HL-60,> 100 µM (inactive)
same,GI50,SF-295,> 49 µM (inactive)
same,GI50,SF-268,> 100 µM (inactive)
same,GI50,HCT-116,> 100 µM (inactive)
same,GI50,MDA-MB-435,> 100 µM (inactive)
same,GI50,MDA-MB-231,> 100 µM (inactive)
same,GI50,HCT-15,> 100 µM
same,GI50,UACC-62,> 100 µM (inactive)
same,GI50,RXF 393,> 100 µM (inactive)
same,GI50,K562,> 100 µM (inactive)
same,GI50,T47D,> 46.5 µM (inactive)
same,GI50,ACHN,> 100 µM (inactive)
same,GI50,786-0,> 100 µM (inactive)
same,GI50,HT-29,> 100 µM (inactive)
same,GI50,MDA-N,> 100 µM (inactive)
same,GI50,NCI-H226,> 100 µM (inactive)
O=[N+]([O-])c1cc(C2(N3CCCCC3)CCCCC2)sc1Br,GI50,NCI-H522,2.14 µM (inactive)
same,GI50,NCI/ADR-RES,3.09 µM (inactive)
same,GI50,SN12C,5.15 µM (inactive)
same,GI50,SNB-19,14.1 µM (inactive)
same,GI50,DU-145,3.18 µM (inactive)
same,GI50,SK-MEL-28,5.41 µM (inactive)
same,GI50,Hs-578T,7.05 µM (inactive)
same,GI50,CCRF-CEM,2.08 µM (inactive)
same,GI50,HOP-62,6 µM (inactive)
same,GI50,SK-MEL-5,5.04 µM (inactive)
same,GI50,CAKI-1,6 µM (inactive)
same,GI50,KM12,6.49 µM (inactive)
same,GI50,OVCAR-5,19.5 µM (inactive)
same,GI50,OVCAR-4,13 µM (inactive)
same,GI50,A498,5.92 µM (inactive)
same,GI50,NCI-H460,14.4 µM (inactive)
same,GI50,NCI-H23,11.9 µM (inactive)
same,GI50,M14,7.69 µM (inactive)
same,GI50,OVCAR-8,6.31 µM (inactive)
same,GI50,A549,17.1 µM (inactive)
same,GI50,HOP-92,8.81 µM (inactive)
same,GI50,SW-620,4.09 µM (inactive)
same,GI50,UO-31,12.1 µM (inactive)
same,GI50,TK-10,2.39 µM (inactive)
same,GI50,COLO 205,3.82 µM (inactive)
same,GI50,SK-MEL-2,7.06 µM (inactive)
same,GI50,UACC-257,2.04 µM (inactive)
same,GI50,PC-3,4.06 µM (inactive)
same,GI50,MCF7,2.83 µM (inactive)
same,GI50,IGROV-1,11.4 µM (inactive)
same,GI50,EKVX,9.16 µM (inactive)
same,GI50,BT-549,6.82 µM (inactive)
same,GI50,Malme-3M,3.44 µM (inactive)
same,GI50,HCC 2998,1.74 µM (inactive)
same,GI50,U-251,6.01 µM (inactive)
same,GI50,RPMI-8226,1.74 µM (inactive)
same,GI50,OVCAR-3,2.72 µM (inactive)
same,GI50,SF-539,2.52 µM (inactive)
same,GI50,LOX IMVI,2.82 µM (inactive)
same,GI50,MOLT-4,1.8 µM (inactive)
same,GI50,SR,2.99 µM (inactive)
same,GI50,SK-OV-3,16.3 µM (inactive)
same,GI50,HL-60,2.34 µM (inactive)
same,GI50,SF-295,15.3 µM (inactive)
same,GI50,SF-268,7.5 µM (inactive)
same,GI50,HCT-116,11.7 µM (inactive)
same,GI50,MDA-MB-435,4.78 µM (inactive)
same,GI50,MDA-MB-231,11 µM (inactive)
same,GI50,HCT-15,5.02 µM
same,GI50,UACC-62,11.3 µM (inactive)
same,GI50,RXF 393,3.66 µM (inactive)
same,GI50,K562,2.92 µM (inactive)
same,GI50,T47D,1.87 µM (inactive)
same,GI50,ACHN,3.98 µM (inactive)
same,GI50,786-0,3.94 µM (inactive)
same,GI50,HT-29,3.87 µM (inactive)
same,GI50,MDA-N,6.41 µM (inactive)
same,GI50,NCI-H226,3.33 µM (inactive)
